Earlier results as cited in patent publication US20150132440A1, “DIPEPTIDE AND TRIPEPTIDE COMPOSITIONS AND USES” (4141 HOLDINGS, LLC, priority 2013, published 2015).
Where a SMILES comes first, the peptide text is derived from it.

Legend:
L6 myotubes = conditions: for glucose uptake rate: L6 myotubes
Caco-2 cells = conditions: for inhibition of H2O2-induced IL-8 secretion: Caco-2 cells pretreated with amino acids (1, 2, and 5 mM) for 2 hours, then 1 mM H2O2 for 6 hours, ELISA
[1] = tested on: glucose transporter GLUT-4; conditions: compared with the other WPH components tested; for efficiency in translocating GLUT-4 to the PM: animal skeletal muscle
Akt = conditions: supplementation
[2] = tested on: human dermal fibroblasts (HDFs); conditions: for protein expression levels of intracellular antioxidant enzymes SOD1, GSH and catalase: H2O2 stressed HDF cells; for H2O2 induced DNA damage / H2O2 induced ROS production / NF-κB activation: HDF cells
[3] = ESR technique
[4] = tested on: isolated skeletal muscles

Val-Leu
glucose uptake rate (L6 myotubes): significant stimulation

N[C@@H](Cc1c[nH]c2ccccc12)C(=O)O [Trp]
GSH S-transferase (GST) activity (Caco-2 cells; Caco-2 cells): increases | inhibition of H2O2-induced IL-8 secretion (Caco-2 cells): inhibition of H2O2-induced IL-8 secretion from Caco-2 cells was observed

CC(C)[C@H](N)C(=O)O [Val, valine]
GSH S-transferase (GST) activity (Caco-2 cells; Caco-2 cells): elevated | catalase activity (Caco-2 cells; Caco-2 cells): elevated | inhibition of H2O2-induced IL-8 secretion (Caco-2 cells): inhibition of H2O2-induced IL-8 secretion from Caco-2 cells was observed

C[C@H](N)C(=O)O [Ala]
GSH reductase activity (Caco-2 cells; Caco-2 cells): enhanced | inhibition of H2O2-induced IL-8 secretion (Caco-2 cells): inhibition of H2O2-induced IL-8 secretion from Caco-2 cells was observed

N[C@@H](Cc1c[nH]cn1)C(=O)O [His]
GSH S-transferase (GST) activity (Caco-2 cells; Caco-2 cells): increases | inhibition of H2O2-induced IL-8 secretion (Caco-2 cells): inhibition of H2O2-induced IL-8 secretion from Caco-2 cells was observed

CC[C@H](C)[C@H](NC(=O)[C@@H](N)CC(C)C)C(=O)O [L-Leucyl-L-isoleucine] (H-Leu-Ile-OH)
efficiency in translocating GLUT-4 to the PM [1]: greater efficiency | efficiency of increasing glucose capture by skeletal muscle [1]: greater efficiency | activation of Akt (Akt): activation

Ile-Val
glucose uptake rate (L6 myotubes): significant stimulation

SPP-1: peptide QLGNLGV derived from seaweed pipefish Syngnathus schlegeli
protein expression levels of intracellular antioxidant enzymes SOD1, GSH and catalase [2]: increase | H2O2 induced DNA damage [2]: effectively suppressed | H2O2 induced ROS production [2]: effectively suppressed | NF-κB activation [2]: block | hydroxyl radical scavenging activity [3]: significant

Leu-Val
glucose uptake rate (L6 myotubes): significant stimulation

CN(C)CCCn1cc(C2=C(c3c[nH]c4ccccc34)C(=O)NC2=O)c2ccccc21 [GF109203X]
stimulation of glucose uptake by Ile-Leu under inhibitor treatment ([4]; isolated muscles): completely inhibited | stimulation of glucose uptake by Ile-Leu under inhibitor treatment (L6 myotubes; L6 cells): completely inhibited

CC(C)C[C@H](N)C(=O)O [Leu, L-leucine]
GSH S-transferase (GST) activity (Caco-2 cells; Caco-2 cells): elevated | catalase activity (Caco-2 cells; Caco-2 cells): elevated | inhibition of H2O2-induced IL-8 secretion (Caco-2 cells): inhibition of H2O2-induced IL-8 secretion from Caco-2 cells was observed

CC[C@H](C)[C@H](N)C(=O)O [Ile, L-isoleucine]
GSH S-transferase (GST) activity (Caco-2 cells; Caco-2 cells): elevated | catalase activity (Caco-2 cells; Caco-2 cells): elevated | inhibition of H2O2-induced IL-8 secretion (Caco-2 cells): inhibition of H2O2-induced IL-8 secretion from Caco-2 cells was observed | efficiency in translocating GLUT-4 to the PM [1]: greater efficiency | efficiency of increasing glucose capture by skeletal muscle [1]: greater efficiency

CC(C)C[C@H](NC(=O)[C@@H](N)CC(C)C)C(=O)O [Leu-Leu, L-Leucyl-L-leucine]
glucose uptake rate (L6 myotubes): significant stimulation

CC[C@H](C)[C@H](N)C(=O)N[C@@H](CC(C)C)C(=O)O [Ile-Leu, L-Isoleucyl-L-Leucine] (H-Ile-Leu-OH)
glycogen contents ([4]; isolated muscles): increased | glucose uptake ([4]; isolated skeletal muscles): stimulated | glucose uptake rate (L6 myotubes): significant stimulation

CC[C@H](C)[C@H](N)C(=O)N[C@H](C(=O)O)[C@@H](C)CC [Ile-Ile, L-Isoleucyl-L-isoleucine] (H-Ile-Ile-OH)
glucose uptake rate (L6 myotubes): significant stimulation

NCCCC[C@H](N)C(=O)O [Lys]
GSH S-transferase (GST) activity (Caco-2 cells; Caco-2 cells): increases | inhibition of H2O2-induced IL-8 secretion (Caco-2 cells): inhibition of H2O2-induced IL-8 secretion from Caco-2 cells was observed

SPP-2: peptide SVMPVVA derived from seaweed pipefish Syngnathus schlegeli
protein expression levels of intracellular antioxidant enzymes SOD1, GSH and catalase [2]: increase | H2O2 induced DNA damage [2]: effectively suppressed | H2O2 induced ROS production [2]: effectively suppressed | NF-κB activation [2]: block | hydroxyl radical scavenging activity [3]: significant
